According to BindingDB's records for doi:10.1021/acsmedchemlett.3c00236 (Smith, Gambrell & Russell, 2023):

Test: Inhibition of NLRP3 in human THP-1 cells assessed as reduction in pyroptosis preincubated for 3 hrs followed by nigericin addition and measured after 1 hr by resazurin dye based microplate reader analysis

IC50: 0.6 nM
Compound: CCN1CCC[C@H](Nc2nc3nc(-c4c(C)cc(Cl)c(F)c4O)ccc3o2)C1
